According to PMC5766608, “Target engagement imaging of PARP inhibitors in small-cell lung cancer” (Nature Communications, 2018):
Like-named read-outs stand apart in the source and are kept apart here.

Tests used:
PARP1 = molecular target: T1, PARP1 (Homo sapiens, UniProt P09874); settings: cited from earlier work
T1 construct: purchased BPS Bioscience, San Diego, CA

PARP1/2 [1] = test: In vitro binding kinetics by recovery of PARPi-FL binding (flow cytometry); type: cell-based, human
Method: (§1) Cells were then treated with fluorescent imaging agent PARPi-FL and either imaged via confocal microscopy or measured via flow cytometry. […] Then, cells were trypsinized, subjected to flow cytometry and analyzed for the relative PARPi-FL fluorescence signal. […] Error bars represent the SD of three independent experiments with three parallels each
(§2) After the respective treatment/staining, which is described below for the different experiments, cells were washed in PBS, trypsinized, washed with flow buffer (1% BSA (w/v) in PBS), transferred to 5 mL flow cytometry tubes through the 40 µm cell strainer cap and left on ice until measurement in the flow cytometer (Fortessa II). Raw data were processed in FlowJo software in order to calculate PARPi-FL uptake per cell. Dead cells were excluded by eliminating DAPI positive cells from the analysis (Supplementary Fig. 8). Cell clumps and debris were eliminated using the corresponding gates (forward and side scatter) for the unstained cell population. PARPi-FL fluorescence was imaged in the FITC channel against side scatter (area).
We furthermore determined the duration of PARPi binding to their target site. […] Then, cells were subjected to flow cytometry as described above. […] We determined the duration of binding of the PARPi indirectly by calculating the recovery of PARP-FL binding with increasing times between PARPi and PARPi-FL treatment. Decay curves were calculated with Prism using two phase decay least squares regression.

JHU-LX22 cells = test: Cytotoxicity, Alamar Blue assay; type: cell-based, human; settings: 24-96 h
Method: […]. Cells were plated in 96-well plates (black, clear-bottom, Corning Incorporated) at a density of 5,000 cells/well and allowed them to attach for 24 h. All compounds were prepared as 10 mM stock solutions in DMSO and further diluted in media. Cells were treated with 0, 2, 5, and 10 µM (final solutions containing 1% DMSO) of each compound for 24, 48, 72 and 96 h. Then, media was removed and Alamar Blue reagent was added to each well. Plates were incubated at 37 °C for 4 h under protection from direct light. Fluorescence was read (bottom-read mode) using an excitation wavelength of 570 nm and an emission wavelength of 585 nm on a SpectraMax M5 microplate reader (Molecular Devices, Sunnyvale, CA, USA). The average reading values were analyzed by subtracting the background readings (wells with Alamar Blue but without cells) and compared against the untreated controls of each plate (defined as 100% viability) to determine the percentage of living cells. The experiment was carried out in three biological replicates with four parallels of each compound.
Supplementary Figure 9 | In vitro toxicity of the tested PARP inhibitors and imaging tracers on JHU-LX22 cells. (a) Assessment of viable cell population during flow cytometry after a 2 hour incubation time of several PARP inhibitors at concentrations between 0 and 5 µM. (b) Cell viability determination using Alamar Blue assays. Cells were incubated with 0, 0.2, 2, 5 or 10 µM of each compound for 24, 48, 72 or 96 h and cell viability was assessed using the Alamar Blue assay. (c) IC values derived from Alamar Blue assays at 72 h and 96 h.
Viability data represent means from three independent experiments, each with four parallels of each sample. Error bars represent the standard error (SEM). […]

PARP1/2 [2] = test: Blocking of PARPi-FL uptake by PARP inhibitors (confocal microscopy, flow cytometry); type: cell-based, human; settings: JHU-LX22 cells; for Blocking of PARPi-FL uptake: pretreatment with PARP inhibitor 25 min, then PARPi-FL 15 min; for Blocking of PARPi-FL uptake / target engagement, in words: pretreatment with inhibitor, then PARPi-FL
Method: as §1
We conducted confocal laser scanning microscopy to visualize the extent of intracellular blocking of PARPi-FL uptake by different PARPi. […] PARPi-FL was removed and cells were washed in fresh medium for 10 min. Next, cells were treated with 4% Paraformaldehyde (PFA) for 8 min on ice to ensure fixation. […] PARPi-FL intensity was determined by measuring the PARPi-FL fluorescence intensity in all nuclei, which were thresholded using Hoechst staining.
as §2
Controls (cells incubated with medium instead of a PARP inhibitor) served as reference value and their PARPi-FL signal was defined as 100%.
To quantify the extent of blocking of PARPi-FL uptake by different PARPi, we quantified the intracellular PARPi-FL uptake in JHU-LX22 cells after incubation with PARP inhibitors.

PARP1/2 [3] = settings: olaparib 50 mg/kg, talazoparib 0.3 mg/kg i.v., 60 min between drug and tracer
Method: (§3) All PET/CT images (n = 90) were acquired on an Inveon PET/CT (Siemens) and reconstructed scans were analyzed using the Inveon Research Workplace Software (Siemens). To acquire PET/CT images, animals were anesthetized with 2% isoflurane and positioned on the scanner bed. […] PET data were collected for 5–10 min, followed by CT.
Activity concentration was quantified by averaging the mean values taken from VOIs drawn over the entire tumor as it appeared in the CT and portrayed as a mean %ID/g ± SD.

PARP1/2 [4] = test: Ex vivo autoradiography of target engagement; settings: olaparib 50 mg/kg, talazoparib 0.3 mg/kg, 30 min prior to tracer; tumor collected 2 h post tracer
Source text: Sections from 3 different tumor areas from each tumor (n = 3/group) were exposed to an autoradiography plate overnight and read the next day. ImageJ was used to quantify the signal intensity of each tissue. Adjacent sections were used for PARP1 IHC and H&E staining to confirm tissue identity and PARP1 expression.

PARylation in LX22 cells = test: PARylation inhibition assay (western blot for PAR); type: cell-based, human; settings: 0.1 µM, 30 min incubation
Method: Whole cell lysates were prepared by incubating cells with RIPA Buffer with Triton X (BP-140, Boston BioProducts) containing Protease Inhibitor (Complete EASYpacks, Sigma-Aldrich) for 30 min on ice, followed by 30 min centrifugation at 10,000 × g for 30 min at 4 °C. Protein concentration of lysates was determined using a Bicinchoninic acid (BCA) assay kit (#23225, Pierce) and following the manufacturers instructions. SDS gel electrophoresis and immunoblotting were carried out following standard procedures. Signal detection was carried out using chemiluminescent substrate (#34077, Thermo Scientific). Densitometric analysis of western blots was carried out using ImageJ (NIH). To detect PAR, we used a rabbit polyclonal anti-PAR polymer antibody (1:1000 dilution, #4336-BPC-100, Trevigen) followed by a goat anti-rabbit IgG-HRP secondary antibody (1:10,000 dilution, sc-2004, SantaCruz). B-actin was used as loading control (1:1000 dilution, A3854, Sigma-Aldrich) and was stained after stripping the blot for 30 min at room temperature using stripping buffer (Amresco).
Supplementary Figure 3 | PARylation inhibition assay.
PARPi-FL and [18F]PARPi quantify PARP inhibition, we compared their ability to inhibit PARylation
in comparison with olaparib.
inhibition. At 1 µM, the PAR signal for all three compounds is nearly completely eliminated.

PARP1/2 [5] = settings: for Blocking of [18F]PARPi tumor uptake (target engagement): 30 min before tracer, PET 2 h later
Source text: Fig. 7 Variable dose blocking.
The control group received no therapeutic inhibitor.

JHU-LX48 SCLC PDX [6] = test: PET/CT imaging agent kinetics; type: in vivo, NSG mice; settings: i.v., JHU-LX48 PDX mice
Source text: Error bars represent the SD
Different mice were used for each group to eliminate, as much as possible, the influence of anesthesia on tracer distribution.

JHU-LX48 SCLC PDX [7] = test: PET/CT tumor size study
Method: PET/CT imaging was performed once a week over 8 consecutive weeks starting one week after xenografting. a Representative MIPs from the same mouse over 8 weeks. b Quantification (n = 6) of mean uptake (top) and max uptake (bottom) of the PET images grouped by tumor size.
as §3
This was continued for 8 consecutive weeks until mice were sacrificed to avoid surpassing a tumor size limit of 1500 mm^3. Activity concentration was quantified by averaging the mean or max values taken from VOIs drawn over the entire tumor as it appeared in the CT and portrayed as mean and max %ID/g ± SD.

PARP2 = molecular target: T2, PARP2 (Homo sapiens, UniProt Q9UGN5); test: PARP2 IC50 assay (BPS Bioscience, Strep-HRP, histone substrate); type: biochemical; settings: footnote a: see Supplementary Fig. 2
T2 construct: purchased BPS Bioscience, San Diego, CA
Method: Assays were performed by BPS Bioscience, San Diego, CA. […] Data was reported by BPS a`s % enzyme activity curve from 0.03 nM or 0.1 nM to 1000 nM.

[8] = JHU-LX22 cells, 0.2 µM inhibitor 25 min, washed, 0-48 h post-incubation, two phase decay fit

T1 sequence (P09874 whole entry): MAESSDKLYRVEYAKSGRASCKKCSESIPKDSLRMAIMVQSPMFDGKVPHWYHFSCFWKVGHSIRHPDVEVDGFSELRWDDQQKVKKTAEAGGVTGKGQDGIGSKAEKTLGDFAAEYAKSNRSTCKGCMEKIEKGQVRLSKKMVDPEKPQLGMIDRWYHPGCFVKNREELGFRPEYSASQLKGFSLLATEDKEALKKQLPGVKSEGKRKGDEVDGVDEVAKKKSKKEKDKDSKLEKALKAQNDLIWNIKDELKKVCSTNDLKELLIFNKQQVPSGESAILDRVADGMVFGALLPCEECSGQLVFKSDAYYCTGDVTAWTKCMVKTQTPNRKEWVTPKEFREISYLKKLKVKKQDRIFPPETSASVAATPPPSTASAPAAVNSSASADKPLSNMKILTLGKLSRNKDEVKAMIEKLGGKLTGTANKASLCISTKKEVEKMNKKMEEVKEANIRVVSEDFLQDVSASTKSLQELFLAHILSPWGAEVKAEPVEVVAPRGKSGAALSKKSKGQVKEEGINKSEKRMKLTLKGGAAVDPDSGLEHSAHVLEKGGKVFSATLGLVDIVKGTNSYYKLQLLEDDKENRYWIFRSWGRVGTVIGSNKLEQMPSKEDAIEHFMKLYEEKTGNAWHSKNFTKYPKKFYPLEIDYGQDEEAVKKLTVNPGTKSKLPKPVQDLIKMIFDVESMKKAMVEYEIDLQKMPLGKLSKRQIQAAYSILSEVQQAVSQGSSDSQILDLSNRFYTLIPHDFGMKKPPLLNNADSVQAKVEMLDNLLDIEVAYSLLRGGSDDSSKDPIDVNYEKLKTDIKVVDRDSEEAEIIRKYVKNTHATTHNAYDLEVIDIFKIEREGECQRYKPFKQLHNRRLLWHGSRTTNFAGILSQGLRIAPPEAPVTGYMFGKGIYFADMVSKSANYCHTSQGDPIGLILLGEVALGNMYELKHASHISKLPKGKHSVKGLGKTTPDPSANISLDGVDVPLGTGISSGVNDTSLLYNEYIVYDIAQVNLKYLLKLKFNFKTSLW
T2 sequence (Q9UGN5 whole entry): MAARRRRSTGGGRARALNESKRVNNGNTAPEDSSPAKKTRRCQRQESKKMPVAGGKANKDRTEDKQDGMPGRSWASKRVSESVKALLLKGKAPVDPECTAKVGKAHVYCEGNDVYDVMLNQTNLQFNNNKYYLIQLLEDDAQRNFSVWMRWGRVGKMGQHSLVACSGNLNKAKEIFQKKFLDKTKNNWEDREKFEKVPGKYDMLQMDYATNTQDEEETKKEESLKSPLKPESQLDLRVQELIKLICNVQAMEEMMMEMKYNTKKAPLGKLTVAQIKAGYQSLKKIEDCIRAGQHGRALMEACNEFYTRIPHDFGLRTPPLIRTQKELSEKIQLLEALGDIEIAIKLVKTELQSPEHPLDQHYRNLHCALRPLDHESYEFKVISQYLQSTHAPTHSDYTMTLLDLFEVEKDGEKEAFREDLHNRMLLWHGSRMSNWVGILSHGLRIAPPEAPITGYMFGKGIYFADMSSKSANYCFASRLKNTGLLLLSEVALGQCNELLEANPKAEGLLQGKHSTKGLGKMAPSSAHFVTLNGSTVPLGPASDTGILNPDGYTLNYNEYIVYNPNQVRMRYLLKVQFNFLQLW

With CN(C)Cc1ccc(-c2nc3cccc4c3n2CCNC4=O)cc1 [AG14361] as the compound, how does the Ki (PARP1) read?
Its Ki is < 5 nM.

For NC(=O)c1cccc2cn(-c3ccc([C@@H]4CCCNC4)cc3)nc12 [Niraparib, niraparib], which “Retention on PARP1/2 binding sites, in words” value (“Retention” for short) (PARP1/2 [1]; [8]) is on record?
Its value is “faster release kinetics”.

And the “Effect on JHU-LX22 cell viability, in words” value (JHU-LX22 cells)?
Its value is “much less cell killing”.

And the “Blocking of PARPi-FL uptake” value (PARP1/2 [2])?
The value was “more than 50%”.

Which “Blocking of PARPi-FL uptake / target engagement, in words” value (PARP1/2 [2]) does the source give for O=C(c1cc(Cc2n[nH]c(=O)c3ccccc23)ccc1F)N1CCN(C(=O)C2CC2)CC1 [Olaparib, olaparib] here?
The value was “most complete target engagement”.

What about the “Initial blocking (t = 1 h)” value (PARP1/2 [3]) of the same compound?
Its value is 74%.

What about the “Initial blocking (t = 1 h)” value (PARP1/2 [3]; listed as olaparib) of the same compound?
Its value is 74%.

And the “[18F]PARPi tumor uptake blocked (autoradiography)” value (PARP1/2 [4])?
The value was 96%.

What about the “Inhibition of PARylation (PAR signal)” value (PARylation in LX22 cells) of the same compound?
The value was “nearly complete inhibition”.

What about the “Blocking of [18F]PARPi tumor uptake (target engagement)” value (“Blocking of [18F]PARPi tumor uptake” below) (PARP1/2 [5]; 5 mg/kg i.v.) of the same compound?
Its value is 59%.

And the “Blocking of [18F]PARPi tumor uptake” value (PARP1/2 [5]; 15 mg/kg i.v.)?
Its value is 75%.

What about the “Blocking of [18F]PARPi tumor uptake” value (PARP1/2 [5]; 50 mg/kg i.v.) of the same compound?
The value was 78%.

What about the 50% blocking dose (PARP1/2 [5]; single-phase decay curve fit, JHU-LX48 PDX tumor) of the same compound?
The 50% blocking dose was 3.17 mg/kg.

For CNCc1ccc(-c2[nH]c3cc(F)cc4c3c2CCNC4=O)cc1 [Rucaparib, rucaparib], which “Retention” value (PARP1/2 [1]; [8]) is on record?
The value was “longest retention”.

What about the “Blocking of PARPi-FL uptake / target engagement, in words” value (PARP1/2 [2]) of the same compound?
The value was “most complete target engagement”.

For C[C@]1(c2nc3c(C(N)=O)cccc3[nH]2)CCCN1 [Veliparib, veliparib], which “Retention” value (PARP1/2 [1]) is on record?
Its value is “faster release kinetics”.

What about the “Effect on JHU-LX22 cell viability, in words” value (JHU-LX22 cells) of the same compound?
The value was “much less cell killing”.

And the “Blocking of PARPi-FL uptake” value (PARP1/2 [2])?
The value was “more than 50%”.

What does the source list for O=C(c1ccc([18F])cc1)N1CCN(C(=O)c2cc(Cc3n[nH]c(=O)c4ccccc34)ccc2F)CC1 [[^18F]PARPi]?
Muscle uptake (PET) (JHU-LX48 SCLC PDX [6]; 30 min post injection): 0.90 ± 0.06 %ID/g; Tumor uptake (PET) (JHU-LX48 SCLC PDX [6]; 30 min post injection): 1.34 ± 0.28 %ID/g; Muscle uptake (PET) (JHU-LX48 SCLC PDX [6]; 60 min post injection): 0.44 ± 0.03 %ID/g; Tumor uptake (PET) (JHU-LX48 SCLC PDX [6]; 60 min post injection): 0.94 ± 0.04 %ID/g; Muscle uptake (PET) (JHU-LX48 SCLC PDX [6]; 120 min post injection): 0.12 ± 0.02 %ID/g; Tumor uptake (PET) (JHU-LX48 SCLC PDX [6]; 120 min post injection): 0.87 ± 0.21 %ID/g; Maximum tumor uptake (JHU-LX48 SCLC PDX [7]; tumor sizes 50-100 mm^3): 2.62 ± 0.27 %ID/g; Maximum tumor uptake (JHU-LX48 SCLC PDX [7]; tumor sizes 50-1300 mm^3): 2.85 ± 0.49 %ID/g; Mean tumor uptake, highest single value (JHU-LX48 SCLC PDX [7]; tumor sizes 50-1300 mm^3): 1.24 %ID/g; Mean tumor uptake, lowest single value (JHU-LX48 SCLC PDX [7]; tumor sizes 50-1300 mm^3): 0.47 %ID/g; Mean tumor uptake (JHU-LX48 SCLC PDX [7]; tumor sizes 50-1300 mm^3, 2 h post injection): 0.86 ± 0.22 %ID/g; Maximum tumor uptake (JHU-LX48 SCLC PDX [7]; tumor sizes 800-1300 mm^3): 3.06 ± 0.61 %ID/g; Mean tumor uptake (JHU-LX48 SCLC PDX [7]; tumor sizes between 100 and 200 mm^3): 0.97 ± 0.18 %ID/g; Mean tumor uptake (JHU-LX48 SCLC PDX [7]; tumor sizes between 400 and 800 mm^3): 0.71 ± 0.22 %ID/g; IC50 (PARP2): 0.21 nM

Which “Blocking of PARPi-FL uptake / target engagement, in words” value (PARP1/2 [2]) does the source give for NC(=O)c1ccc(I)c([N+](=O)[O-])c1 [iniparib] here?
Its value is “failed to reduce PARPi-FL uptake”.
